# Source: patent US10214542B2, “Modified macrocyclic compounds” (BAYER PHARMA AKTIENGESELLSCHAFT, priority 2015, dated 2019)
# Key:
# [1] = test system: HeLa cells; experiment: Proliferation assay, crystal violet (Method 3); assay type: cell-based, human; details: Homo sapiens, 96 h, 4 days, read-out: Inhibition of HeLa cell proliferation IC50
# Protocol: (§1) Cultivated tumour cells (HeLa, human cervical tumour cells, ATCC CCL-2; NCI-H460, human non-small cell lung carcinoma cells, ATCC HTB-177; DU 145, hormone-independent human prostate carcinoma cells, ATCC HTB-81; HeLa-MaTu-ADR, multidrug-resistant human cervical carcinoma cells, EPO-GmbH Berlin; Caco-2, human colorectal carcinoma cells, ATCC HTB-37; B16F10, mouse melanoma cells, ATCC CRL-6475) were plated at a density of 5,000 cells/well (DU145, HeLa-MaTu-ADR), 3,000 cells/well (NCI-H460, HeLa), 1,500 cells/well (Caco-2), or 1,000 cells/well (B16F10) in a 96-well multititer plate in 200 μL of their respective growth medium supplemented 10% fetal calf serum. After 24 hours, the cells of one plate (zero-point plate) were stained with crystal violet (see below), while the medium of the other plates was supplemented with the test substances in various concentrations (0 μM, as well as in the range of 0.0001-10 μM; the final concentration of the solvent dimethyl sulfoxide was adjusted to 0.1%) using a Hewlett-Packard HP D300 Digital Dispenser. The cells were incubated for 4 days in the presence of test substances. Cell proliferation was determined by staining the cells with crystal violet: the cells were fixed by adding 20 μl/measuring point of an 11% glutaric aldehyde solution for 15 minutes at room temperature. After three washing cycles of the fixed cells with water, the plates were dried at room temperature. The cells were stained by adding 100 μl/measuring point of a 0.1% crystal violet solution (pH 3.0). After three washing cycles of the stained cells with water, the plates were dried at room temperature. The dye was dissolved by adding 100 μl/measuring point of a 10% acetic acid solution. The extinction was determined by photometry at a wavelength of 595 nm. The change of cell number, in percent, was calculated by normalization of the measured values to the extinction values of the zero-point plate (=0%) and the extinction of the untreated (0 μm) cells (=100%). The IC50 values (inhibitory concentration at 50% of maximal effect) were determined by means of a 4 parameter fit.
# [2] = test system: MOLM-13 cells; experiment: Proliferation assay, Cell Titre-Glo viability (Method 3); assay type: cell-based; details: Homo sapiens; MOLM-13, 72-hour exposure; read-out: Inhibition of MOLM-13 cell proliferation IC50
# Protocol: (§2) A2780 human ovarian carcinoma cells (ECACC #93112519) and non-adherent MOLM-13 human acute myeloid leukemia cells (DSMZ ACC 554) were seeded at a density of 3,000 cell/well (A2780) or 5,000 cells/well (MOLM-13) in a 96-well multititer plate in 150 μL of growth medium supplemented 10% fetal calf serum. After 24 hours, cell viability of one plate (zero-point plate) was determined with the Cell Titre-Glo Luminescent Cell Viability Assay (Promega), while the medium of the other plates was supplemented with the test substances in various concentrations (0 μM, as well as in the range of 0.0001-10 μM; the final concentration of the solvent dimethyl sulfoxide was adjusted to 0.1%) using a Hewlett-Packard HP D300 Digital Dispenser. Cell viability was assessed after 72-hour exposure with the Cell
# (§3) Titre-Glo Luminescent Cell Viability Assay (Promega). IC50 values (inhibitory concentration at 50% of maximal effect) were determined by means of a 4 parameter fit on measurement data which were normalized to vehicle (DMSO) treated cells (=100%) and measurement readings taken immediately before compound exposure (=0%).
# [3] = test system: A2780 cells; experiment: as above; assay type: cell-based, human; details: Homo sapiens, A2780, 72 h, A2780, 72-hour exposure; read-out: Inhibition of A2780 cell proliferation IC50
# Protocol: as §2, §3
# [4] = test system: HeLa-MaTu-ADR cells; experiment: Proliferation assay, crystal violet (Method 3); assay type: cell-based; details: Homo sapiens, 96 h, 4 days, read-out: Inhibition of HeLa-MaTu-ADR cell proliferation IC50
# Protocol: as §1
# [5] = test system: NCI-H460 cells; experiment: Proliferation assay, crystal violet (Method 3); assay type: cell-based; details: Homo sapiens, 96 h; NCI-H460, 4 days; read-out: Inhibition of NCI-H460 cell proliferation IC50
# Protocol: as §1
# [6] = test system: DU145 cells; experiment: Proliferation assay, crystal violet (Method 3); assay type: cell-based; details: Homo sapiens, DU-145, 96 h; DU145, 4 days; read-out: Inhibition of DU145 cell proliferation IC50
# Protocol: as §1
# [7] = test system: Caco-2 cells; experiment: Proliferation assay, crystal violet (Method 3); assay type: cell-based; details: Homo sapiens, 96 h; Caco-2, 4 days; read-out: Inhibition of Caco-2 cell proliferation IC50
# Protocol: as §1
# [8] = test system: B16F10 cells; experiment: Proliferation assay, crystal violet (Method 3); assay type: cell-based; details: Mus musculus, B16-F10, 96 h; B16F10, 4 days; read-out: Inhibition of B16F10 cell proliferation IC50
# Protocol: as §1
Compound,IC50 [1] [µM],IC50 [2] [µM],IC50 [3] [µM],IC50 [4] [µM],IC50 [5] [µM],IC50 [6] [µM],IC50 [7] [µM],IC50 [8] [µM]
"CC(C)(C)OC(=O)N=S(C)(=O)Cc1cc2cc(c1)OCCCNc1cc(F)ccc1-c1nc(ncc1F)N2 (racemic) [Example 13, (rac)-tert-butyl[{[15,19-difluoro-1,2,3,4-tetrahydro-16,12-(azeno)-6,10-(metheno)-5,1,11,13-benzoxatriazacyclooctadecin-8(11H)-yl]methyl}(methyl)oxido-λ^6-sulfanylidene]carbamate]",0.078,0.014,0.019,0.094,0.079,0.055,0.068,–
"C[S+]([O-])Cc1cc2nc(c1)OCCCCCc1cc(F)ccc1-c1cc(ncc1F)N2 (racemic) [Example 19, (rac)-2,19-difluoro-9-[(methylsulfinyl)methyl]-14,15,16,17-tetrahydro-6H,13H-7,11-(azeno)-5,1-(metheno)-12,4,6-benzoxadiazacyclononadecine]",1,0.231,> 0.1,0.888,1.15,0.942,0.944,1.55
"CSCc1cc2nc(c1)Nc1cc(c(F)cn1)-c1ccc(F)cc1OCCCN2 [Example 1, 15,19-Difluoro-8-[(methylsulfanyl)methyl]-2,3,4,5-tetrahydro-11H-10,6-(azeno)-12,16-(metheno)-1,5,11,13-benzoxatriazacyclooctadecine]",0.028,0.008,0.009,0.028,0.031,0.03,0.036,0.051
"CC(C)(C)OC(=O)N=S(C)(=O)Cc1cc2nc(c1)Nc1cc(c(F)cn1)-c1ccc(F)cc1OCCCCCN2 (racemic) [Example 9, (rac)-tert-butyl[{[17,21-difluoro-2,3,4,5,6,7-hexahydro-13H-12,8-(azeno)-14,18-(metheno)-1,7,13,15-benzoxatriazacycloicosin-10-yl]methyl}(methyl)oxido-λ^6-sulfanylidene]carbamate]",0.033,0.019,0.027,0.075,0.039,0.036,0.048,0.085
"CSCc1cc2nc(c1)OCCCCc1cc(F)ccc1-c1cc(ncc1F)N2 [Example 4, 2,18-Difluoro-9-[(methylsulfanyl)methyl]-13,14,15,16-tetrahydro-6H-7,11-(azeno)-5,1-(metheno)-12,4,6-benzoxadiazacyclooctadecine]",9.28,0.97,–,5.57,4.77,> 10,2.55,> 10
"CSCc1cc2nc(c1)OCCCCCc1cc(F)ccc1-c1cc(ncc1F)N2 [Example 18, 2,19-difluoro-9-[(methylsulfanyl)methyl]-14,15,16,17-tetrahydro-6H,13H-7,11-(azeno)-5,1-(metheno)-12,4,6-benzoxadiazacyclononadecine]",> 10,–,> 0.1,> 10,> 10,> 10,4.64,> 10
"C[S+]([O-])Cc1cc2nc(c1)OCCCCc1cc(F)ccc1-c1cc(ncc1F)N2 (racemic) [Example 5, (rac)-2,18-Difluoro-9-[(methylsulfinyl)methyl]-13,14,15,16-tetrahydro-6H-7,11-(azeno)-5,1-(metheno)-12,4,6-benzoxadiazacyclooctadecine]",0.955,0.024,0.27,0.83,1.07,0.836,0.761,–

# Further lines, results first:
IC50 [1] [µM],IC50 [2] [µM],IC50 [3] [µM],IC50 [4] [µM],IC50 [5] [µM],IC50 [6] [µM],IC50 [7] [µM],IC50 [8] [µM],Compound
0.01,0.0082,0.0046,0.012,0.012,0.012,0.0089,0.012,"CN1CCCCOc2cc(F)ccc2-c2cc(ncc2F)Nc2cc(CS(C)(=N)=O)cc1n2 (racemic) [Example 11, (rac)-16,20-difluoro-6-methyl-9-[(S-methylsulfonimidoyl)methyl]-3,4,5,6-tetrahydro-2H-7,11-(azeno)-17,13-(metheno)-1,6,12,14-benzoxatriazacyclononadecine]"
–,0.0098,0.013,–,–,–,–,–,"CN1CCCCOc2cc(F)ccc2-c2nc(ncc2F)Nc2cc(CS(C)(=N)=O)cc1c2 (racemic) [Example 23, (rac)-16,20-difluoro-6-methyl-9-[(S-methylsulfonimidoyl)methyl]-3,4,5,6-tetrahydro-2H,12H-13,17-(azeno)-11,7-(metheno)-1,6,12,14-benzoxatriazacyclononadecine]"
0.01,0.0041,0.0082,0.013,0.02,0.012,0.012,0.018,"CS(=N)(=O)Cc1cc2cc(c1)OCCCCNc1cc(F)ccc1-c1nc(ncc1F)N2 (racemic) [Example 16, (rac)-16,20-difluoro-9-[(S-methylsulfonimidoyl)methyl]-2,3,4,5-tetrahydro-1H-17,13-(azeno)-7,11-(metheno)-6,1,12,14-benzoxatriazacyclononadecine]"
–,0.0031,0.0047,–,–,–,–,–,"CS(=N)(=O)Cc1cc2cc(c1)OCCCNc1cc(F)ccc1-c1nc(ncc1F)N2 (racemic) [Example 14, rac-15,19-difluoro-8-[(S-methylsulfonimidoyl)methyl]-1,2,3,4-tetrahydro-16,12-(azeno)-6,10-(metheno)-5,1,11,13-benzoxatriazacyclooctadecine]"
0.031,0.013,0.0065,0.03,0.035,0.03,0.024,0.038,"CN1CCCCNc2cc(F)ccc2-c2nc(ncc2F)Nc2cc(CS(C)(=N)=O)cc1c2.O=CO (racemic) [Example 17, (rac)-16,20-difluoro-6-methyl-9-[(S-methylsulfonimidoyl)methyl]-1,2,3,4,5,6-hexahydro-12H-17,13-(azeno)-11,7-(metheno)-1,6,12,14-benzotetraazacyclononadecine; salt with formic acid]"
–,0.0034,0.0055,–,–,–,–,–,"CS(=N)(=O)Cc1cc2nc(c1)Nc1cc(c(F)cn1)-c1ccc(F)cc1OCCCCN2 (racemic) [Example 3, (rac)-16,20-Difluoro-9-[(S-methylsulfonimidoyl)methyl]-3,4,5,6-tetrahydro-2H,12H-11,7-(azeno)-13,17-(metheno)-1,6,12,14-benzoxatriazacyclononadecine]"
0.014,0.0044,0.0052,0.019,0.018,0.011,0.013,0.026,"CS(=N)(=O)Cc1cc2nc(c1)Nc1cc(c(F)cn1)-c1ccc(F)cc1OCCCCCN2 (racemic) [Example 10, (rac)-17,21-difluoro-10-[(S-methylsulfonimidoyl)methyl]-2,3,4,5,6,7-hexahydro-13H-12,8-(azeno)-14,18-(metheno)-1,7,13,15-benzoxatriazacycloicosine]"
